The source of these data is paper PMC6332320, “Factors Influencing Oral Bioavailability of Thai Mango Seed Kernel Extract and Its Key Phenolic Principles” (Molecules, 2015).

Broadly, the Papp A→B is how fast a substance crosses the layer from the apical side. Broadly, the Papp B→A is the apparent permeability from the basolateral to the apical side of a cell layer.

Where two headings read alike, the source gives them in different places. Marks after values point to notes of the source that are not given here.

The nature of data set [1]: Excretion in urine and feces after oral administration in rats. Type of data set: in vivo, Sprague-Dawley rats. The settings on record: for Total Mass in Feces (0−24 h) / Total Mass in Urine (0−24 h): p.o.; for dose excreted: Sprague-Dawley, rat, blood, urine and feces, oral, 0-24 h, read-out: % recovery (total mass recovery: blood + urine + feces / initial mass). On the procedure:
SD rats (five rats/group) were individually housed in stainless-steel metabolic cages, which allowed for the separation and collection of urine and feces. The rats were fasted overnight with ad libitum access to water prior to the day of the experiment. After a rat was anesthetized with isoflurane gas, the prepared suspension of test compound in an oral suspension vehicle was administered to the animals via oral gavage at a dose of 20 mg/kg for each compound in the mixture of MG and PGG or at 143 mg/kg MSKE, which is equivalent to approximate doses of 20 mg/kg PGG and 0.13 mg/kg MG. Subsequently, the rats’ tails were snipped near the tip to collect blood samples (approximately 50 µL), which were collected in heparinized tubes at 0, 0.50, 1, 2, 4, 6, 8 and 24 h. To investigate the excretion of phenolic compounds, urine and feces were collected between 0–24 h post-administration into tubes containing penicillin G (200 mg) and dry tubes, respectively, which were pre-weighted before use. After completing the pharmacokinetic study, the urine volume and dry feces weights were recorded, and all samples were stored at −80 °C until analysis.
The blood and urine samples were prepared according to our previously reported methods. The fecal samples were prepared by adding 30 mL methanol to the sample, and the mixture was then vortexed and sonicated for 30 min to obtain the fecal lysates, which were extracted via the same method.
The pharmacokinetic parameters of MG and PGG were calculated based on the non-compartmental method using WinNonlin 3.3 (Pharsight Corporation, Mountain View, CA, USA). The total mass of analytes was calculated according to the following equations (Equations (3)–(6)): The mass recovery (%) = (total mass in blood + total mass in urine + total mass in feces)/initial mass of analyte (3) Total mass in blood = C24h in blood × rat blood volume (70 mL/kg of body weight) (4) Total mass in urine = C0–24h in urine × volume of urine (0–24 h) (5) Total mass in feces = C0–24h in fecal lysate × volume of fecal lysate (30 mL) (6) where C24h in the blood is the concentration of analyte found in the blood sample at 24 h, and C0–24h in the urine and C0–24h in the fecal lysate are the concentrations of the analyte found in the urine and fecal samples, respectively, between 0 and 24 h.

Data set [2] can be described thus: Caco-2 transepithelial transport experiment. It is filed as in vitro ADME, human. The settings on record: human. As to the method: The transport experiment using Caco-2 monolayer was performed according to the criteria in our laboratory as previously reported with slight modification. Briefly, the cell monolayers were prepared by seeding 400,000 cells onto a polycarbonate insert, which has a surface area and pore size of 4.2 cm^2 and 3 μm, respectively (Nunc™, Thermo Fisher Scientific, Waltham, MA, USA). Cells were maintained in a humidified atmosphere at 37 °C (90% humidity and 5% CO2) and fed every other day. After 19 to 22 days post-seeding, the cell monolayers were used in the experiments. Before the experiment, the monolayers were quickly washed twice with pre-warmed HBSS at pH 7.4 (37 °C). The integrity of each monolayer was then verified by measuring the transepithelial electrical resistance (TEER) using a Millicell® ERS meter (Millipore, Bedford, MA, USA), and layers with TEER values less than 400 Ω/cm^2 relative to that of the blank insert were discarded. Then, the monolayers were incubated with the HBSS buffer at 37 °C for 1 h, and the incubation buffer was then aspirated. The test compounds were dissolved in HBSS at pH 6 to obtain final concentrations for the individual compounds (20 μM), mixture (20 μM) and MSKE (0.25 mg/mL), which were then loaded onto the A or B side (2.6 mL) as the donor side. A 2.6 mL aliquot of HBSS at pH 6 without the test compounds was loaded into the other side as the receiver side. After incubation at 37 °C, 0.6 mL of sample was collected from the receiver side at indicated times (60, 120, 180 and 240 min), and the same volume of receiver medium was replaced after each sampling. At the end of the experiment, the cells were washed twice with ice-cold HBSS at pH 6. The cells in each well were then collected and resuspended in 600 μL of HBSS at pH 6, and sonicated in an ice water bath at an output of 9 W for 30 min to obtain the cell lysates. The lysate was divided into the following aliquots: (1) 20 μL for quantitative protein assessment using a BCA™ protein assay kit and (2) 580 μL for quantitative test compounds. The samples collected from the transport study were stored at −20 °C until the UPLC or LC–MS/MS analysis. The experiments were performed in triplicate.
The apparent permeability coefficient (Papp, cm/s) of each compound was calculated according to the following equation (Equation (1)): (1) Papp= dQ/dt×1/AC0 where dQ/dt is the compound permeation rate (nmol/s), A denotes the membrane surface area, and C0 is the initial concentration on the donor side (µM). The efflux ratio was calculated according to the following equation (Equation (2)): (2) Efflux ratio= Papp BA(mean)/Papp AB(mean) where Papp BA (mean) and Papp AB (mean) are the average apparent permeability coefficients of each compound from side B to side A, and from side A to side B, respectively.

Where [3] appears, read: MSKE 143 mg/kg (20 mg/kg PGG and 0.13 mg/kg MG).
[4] abbreviates: mixture of MG and PGG 20 mg/kg each.

`O=C(O)c1cc(O)c(O)c(O)c1` [GA, Gallic acid]: in data set [1] (setting [3]), the “Total Mass in Feces (0−24 h)” value is reported as 39.47 ± 17.44 ^b µg and the “Total Mass in Urine (0−24 h)” value is 54.54 ± 26.59 µg. Also, in data set [1] (setting [4]), the “Total Mass in Feces (0−24 h)” value is listed as 9.64 ± 1.91 µg and the “Total Mass in Urine (0−24 h)” value worked out at 42.95 ± 26.88 µg. Besides, the Papp A→B at 240 min in data set [2] (Caco-2, pH 6, Papp A to B) turned out to be 1.46 ± 0.21 ×10⁻⁶ cm/s. In data set [2] (Caco-2, pH 6, Papp B to A), this compound had a Papp B→A at 240 min of 8.04 ± 0.43 ×10⁻⁶ cm/s and an apparent permeability from basolateral to apical (Papp B→A) at 240 min, 20 µM of 1.02 ± 0.29 ×10⁻⁶ cm/s.

In the case of `COC(=O)c1cc(O)c(O)c(O)c1` [MG, methyl gallate], the dose excreted in data set [1] (setting [3]) was 73.4 ± 30%; in data set [1] (setting [4]), under 2%. The “Total Mass in Feces (0−24 h)” value is on record as 18.35 ± 10.14 ^b µg in data set [1] (setting [3]) and 3.25 ± 1.73 µg in data set [1] (setting [4]). Also, the “Total Mass in Urine (0−24 h)” value in data set [1] (setting [3]) was 9.81 ± 2.81 ^b µg; in data set [1] (setting [4]), 100.36 ± 74.67 µg. Besides, the apparent permeability from apical to basolateral (Papp A→B) at 240 min in data set [2] (Caco-2, pH 6, as principle in MSKE 0.25 mg/mL, HBSS pH 6, read-out: Papp A to B) stood at 17.6 ± 1.54 ×10⁻⁶ cm/s. Further, in data set [2] (Caco-2, pH 6, as principle in MSKE 0.25 mg/mL, HBSS pH 6, read-out: Papp B to A), the Papp B→A at 240 min worked out at 11.3 ± 0.31 ×10⁻⁶ cm/s. Moreover, in data set [2] (Caco-2, pH 6, as principle in MSKE 0.25 mg/mL, Papp BA/Papp AB, read-out: Efflux Ratios), the efflux ratio at 240 min was determined as 0.66. Moreover, the efflux ratio at 240 min, 20 µM in data set [2] (Caco-2, pH 6, in mixture 20 μM, Papp BA/Papp AB, read-out: Efflux Ratios) came out at 0.51; in data set [2] (Caco-2, pH 6, individual compound 20 μM, Papp BA/Papp AB, read-out: Efflux Ratios), 0.52. The Papp A→B at 240 min, 20 µM amounted to 12.5 ± 0.63 ×10⁻⁶ cm/s in data set [2] (Caco-2, pH 6, in mixture of GA, MG, PGG 20 μM, HBSS pH 6) and 13.6 ± 0.4 ×10⁻⁶ cm/s in data set [2] (Caco-2, pH 6, individual compound 20 μM, HBSS pH 6). Moreover, the Papp B→A at 240 min, 20 µM in data set [2] (Caco-2, pH 6, in mixture of GA, MG, PGG 20 μM, HBSS pH 6, read-out: Papp B to A) turned out to be 6.33 ± 0.57 ×10⁻⁶ cm/s; in data set [2] (Caco-2, pH 6, individual compound 20 μM, HBSS pH 6, read-out: Papp B to A), 7.02 ± 1.11 ×10⁻⁶ cm/s.
